Laboratory results: ChEMBL document CHEMBL1137166, “A unidirectional crosslinking strategy for HIV-1 protease dimerization inhibitors” (Bioorg Med Chem Lett, 2004)
Where a SMILES comes first, the peptide text is derived from it. [ ]: non-standard residue; d: D form. The star is where a group is joined. ξ: configuration not given here. Tyr(3-NO2) = N[C@@H](Cc1ccc(O)c([N+](=O)[O-])c1)C(=O)O; C16 diacid = O=C(O)CCCCCCCCCCCCCCC(=O)*; 1Nal = N[C@@H](Cc1cccc2ccccc12)C(=O)O; Cha = N[C@@H](CC1CCCCC1)C(=O)O; Ile(3ξ) = CCC(C)[C@H](N)C(=O)O; aThr = C[C@H](O)[C@H](N)C(=O)O; Fumaroyl = O=C(O)/C=C/C(=O)*; 12Ado = NCCCCCCCCCCCC(=O)O

Key:
[1] = biological target: T1, Human immunodeficiency virus type 1 protease (Human immunodeficiency virus 1, UniProt Q72874); experiment: Inhibitory activity against Human immunodeficiency virus-1 protease
[2] = biological target: T1, Human immunodeficiency virus type 1 protease; experiment: Binding activity towards Human immunodeficiency virus-1 protease
[3] = biological target: Human immunodeficiency virus type 1 protease (Human immunodeficiency virus 1) (UniProt Q72874); experiment: Percent inhibition against Human immunodeficiency virus-1 protease at the concentration of 100 uM

`NC(=O)CCCCCCCCCCCNC(=O)[C@H](Cc1ccc(O)c([N+](=O)[O-])c1)NC(=O)[C@H](CC1CCCCC1)NC(=O)/C=C/C(=O)O` showed an IC50 [1] of 20 µM.

`CC(C)C[C@H](NC(=O)CCCCCCCCCCCCCCC(=O)N[C@@H](CC(N)=O)C(=O)N[C@@H](Cc1ccccc1)C(=O)O)C(=O)N[C@@H](Cc1ccccc1)C(N)=O` (HELM PEPTIDE1{L.F.[am]}|PEPTIDE2{N.F}|CHEM1{[O=C(CCCCCCCCCCCCCCC(=O)[*:2])[*:1]]}$PEPTIDE1,CHEM1,1:R1-1:R1|PEPTIDE2,CHEM1,1:R1-1:R2$$$V2.0) gave an IC50 [1] of 11 µM.

`CC[C@H](C)[C@H](NC(=O)[C@H](CCC(N)=O)NC(=O)[C@@H]1CCCN1C(=O)CCCCCCCCCCCCCCC(=O)N[C@@H](CO)C(=O)N[C@H](C(=O)N[C@@H](CC(C)C)C(=O)N[C@@H](CC(N)=O)C(=O)N[C@@H](Cc1ccccc1)C(=O)O)[C@@H](C)O)C(=O)N[C@H](C(=O)N[C@@H](CC(C)C)C(=O)N[C@@H](Cc1c[nH]c2ccccc12)C(=O)O)[C@H](C)O` was tested, and the IC50 [1] was 0.35 µM and the Ki [2] was 0.22 µM.

`CCC(C)[C@H](NC(=O)CCCCCCCCCCCNC(=O)[C@H](Cc1ccc(O)c([N+](=O)[O-])c1)NC(=O)[C@H](CC1CCCCC1)NC(=O)/C=C/C(=O)O)C(=O)N[C@@H](Cc1ccccc1)C(N)=O` (stereo partly drawn) (Fumaroyl-[Cha][Tyr(3-NO2)][12Ado][Ile(3ξ)]F-NH2) gave an IC50 [1] of 327 µM and a Ki [2] of 199 µM.

With `CC(C)C[C@H](NC(=O)[C@@H](NC(=O)CCCCCCCCCCCCCCC(=O)N[C@@H](CC(N)=O)C(=O)N[C@@H](Cc1ccccc1)C(=O)O)[C@H](C)O)C(=O)N[C@@H](Cc1ccccc1)C(N)=O` ({Phe-Asn-C16 diacid}-[aThr]-Leu-Phe-NH2) the IC50 [1] was 5.4 µM and the Ki [2] was 3 µM.

`CCC(C)[C@H](NC(=O)CCCCCCCCCCCNC(=O)[C@@H](NC(=O)[C@@H](N)Cc1ccccc1)C(N)=O)C(=O)N[C@@H](Cc1ccccc1)C(N)=O` (stereo partly drawn) showed an inhibition [3] of 35%.

`CCC(C)[C@H](NC(=O)CCCCCCCCCCCNC(=O)[C@@H](NC(=O)[C@H](Cc1ccccc1)NC(=O)CCC(=O)O)C(N)=O)C(=O)N[C@@H](Cc1ccccc1)C(N)=O` (stereo partly drawn) was tested, and the inhibition [3] was under 50%.

`CCC(C)[C@H](NC(=O)CCCCCCCCCCCNC(=O)[C@H](Cc1ccc(O)c([N+](=O)[O-])c1)NC(=O)[C@H](CC1CCCCC1)NC(=O)/C=C/C(=O)O)C(N)=O` (stereo partly drawn) showed an IC50 [1] of 3.7 µM.

With `NC(=O)[C@H](Cc1ccc(O)c([N+](=O)[O-])c1)NC(=O)[C@H](CC1CCCCC1)NC(=O)/C=C/C(=O)O` the inhibition [3] was under 20%.

For `CCC(C)[C@H](NC(=O)CCCCCCCCCCCNC(=O)CNC(=O)[C@@H](CC(N)=O)NC(=O)[C@H](Cc1ccccc1)NC(=O)/C=C/C(=O)O)C(=O)N[C@@H](Cc1ccccc1)C(N)=O` (stereo partly drawn), the IC50 [1] was 16.8 µM.

`CCC(C)[C@H](NC(=O)CCCCCCCCCCCNC(=O)[C@@H](NC(=O)[C@H](Cc1ccccc1)NC(=O)/C=C/C(=O)O)C(N)=O)C(=O)N[C@@H](Cc1ccccc1)C(N)=O` (stereo partly drawn) was tested, and the IC50 [1] was 12 µM and the Ki [2] was 4.9 µM.

For `CCC(C)[C@H](NC(=O)CCCCCCCCCCCNC(=O)[C@H](Cc1ccc(O)c([N+](=O)[O-])c1)NC(=O)[C@H](CC1CCCCC1)NC(=O)/C=C/C(=O)O)C(=O)N[C@@H](Cc1cccc2ccccc12)C(N)=O` (stereo partly drawn) (Fumaroyl-[Cha][Tyr(3-NO2)][12Ado][Ile(3ξ)][1Nal]-NH2), the IC50 [1] was 361 µM and the Ki [2] was 209 µM.

For `CCC(C)[C@H](NC(=O)CCCCCCCCCCCNC(=O)[C@@H](NC(=O)[C@H](Cc1ccccc1)NC(C)=O)C(N)=O)C(=O)N[C@@H](Cc1ccccc1)C(N)=O` (stereo partly drawn), the inhibition [3] was 15%.

In the case of `CCC(C)[C@H](NC(=O)CCCCCCCCCCCNC(=O)[C@H](NC(=O)[C@H](Cc1ccccc1)NC(=O)/C=C/C(=O)O)C(N)=O)C(=O)N[C@@H](Cc1ccccc1)C(N)=O` (stereo partly drawn), the IC50 [1] is reported as 14.2 µM.

Work on `CCC(C)[C@H](NC(=O)CCCCCCCCCCCNC(=O)[C@H](Cc1ccc(O)c([N+](=O)[O-])c1)NC(=O)[C@H](CC1CCCCC1)NC(=O)/C=C/C(=O)O)C(=O)N[C@@H](Cc1ccc(O)c([N+](=O)[O-])c1)C(N)=O` (stereo partly drawn) (Fumaroyl-[Cha][Tyr(3-NO2)][12Ado][Ile(3ξ)][Tyr(3-NO2)]-NH2) yielded an IC50 [1] of 247 µM and a Ki [2] of 222 µM.

`CCC(C)[C@H](NC(=O)CCCCCCCCCCCNC(=O)[C@@H](NC(=O)[C@@H](Cc1ccccc1)NC(=O)/C=C/C(=O)O)C(N)=O)C(=O)N[C@@H](Cc1ccccc1)C(N)=O` (stereo partly drawn) showed an IC50 [1] of 18.8 µM.

With `CCC(C)[C@H](NC(=O)CCCCCCCCCCCNC(=O)[C@H](NC(=O)[C@@H](Cc1ccccc1)NC(=O)/C=C/C(=O)O)C(N)=O)C(=O)N[C@@H](Cc1ccccc1)C(N)=O` (stereo partly drawn) the IC50 [1] was 9.7 µM.
